From patent US20080015236A1, “METHOD FOR PROMOTING MYOCARDIAL REGENERATION AND USES THEREOF” (priority 2006, published 2008) come the findings set out here.

Entries after “also recorded” stand apart in the source; their conditions may differ.

The test concerns region of myocardium that includes a myocardial infarction. The test can be described thus: Occlusion of the left anterior descending artery (myocardial infarction) in rats, daily intraperitoneal GM284, survival and histological analysis. The test is classed as in vivo, Sprague Dawley rats. The source says:
The left anterior descending artery (“LAD”) of 36 male adult Sprague Dawley rats weighing between 250 and 270 grams was occluded by placement of a ligature around the LAD and pulling it taught. The ligature was left in place to create a chronic ischemic area (myocardial infarction) distal to the occlusion. Following the closure of the chest and evacuation of the extra-pulmonary air to reverse the surgery-induced pneumothorax, the rats were returned to their cages for recovery, where they had ad libitum access to water and food for the duration of the experiment. Immediately following surgery the rats received the analgesic Buprenex at a dose of 1.5 mg/kg subcutaneously every 12 hours for the first 72 hours, and then on an as-needed basis.
The GM284 was dissolved to a final concentration of 5 mg/kg in phosphate buffered saline (“PBS”); 10 μM stock solution of GM284 in dimethyl sulfoxide (“DMSO”) was diluted in PBS. The vehicle was 250 μl of DMSO into 10 ml PBS.
Postsurgically, the rats were randomly assigned into six (6) experimental groups (A through F) with 6 animals in each group (n=36). “Vehicle” groups A, C and E received daily intraperitoneal injections of vehicle; and, “treatment” groups B, D, and F were treated with intraperitoneal injections of GM284.
Animals in treatment groups B, D, and F received daily intraperitoneal injections of GM284 at 5 mg/kg; and, animals in vehicle groups A, C and E received daily intraperitoneal injections of only the vehicle in which the GM284 was dissolved.
Animals in vehicle group A and treatment group B were treated for 2 weeks after LAD ligation and sacrificed.
Animals in vehicle group C and treatment group D were treated for 2 weeks following LAD ligation. Thereafter, the vehicle or GM284 injections were withdrawn and the animals were allowed to survive for an additional 2 weeks prior to sacrifice.
Animals in vehicle group E treatment group F were treated daily for 30 days following LAD ligation and then sacrificed.
Prior to sacrifice, the animals were anesthetized the hearts were harvested and processed for histological analysis by submersion-fixing in 4% paraformaldehyde at 4° C. overnight, followed by dehydration and embedding in paraffin. Eight-micra tissue sections were cut through the infarcted area and stained with H&E and trichrome. The histological sections were viewed by light microscopy, by a reviewer blind to the treatment groups, and evaluated for: • 1) the size of the infarct; • 2) the presence of viable cardiac myocytes; and, • 3) the extent of collateral vascularity.

Setting [1] is: two weeks after LAD occlusion, daily GM284 5 mg/kg i.p., versus vehicle, FIG. 2b.

`CCC(C)(C)C(=O)C(=O)N1CCC[C@H]1c1nnc([C@@H]2CCCN2C(=O)C(=O)C(C)(C)CC)o1` [GM284]: where the note is “four weeks after LAD occlusion, daily treatment (group F), vehicle: extensive area of infarction, FIG. 3a”, the “scarring / fibrosis (trichrome stain)” value is given as “virtually no scarring; also recorded: minimal fibrosis”. The “cardiac histology (H&E stain)” value (four weeks after LAD occlusion, daily treatment (group F), vehicle: extensive fibrosis, FIG. 3c) is “normal cardiac histology”. In addition, the “histological appearance of the cardiac tissue after withdrawal of treatment” value (treated two weeks, survived additional two weeks without treatment (group D), compared with animals analyzed at cessation of treatment) is reported as “did not significantly alter the histological appearance”. Moreover, the “survival over the length of the study” value (treatment groups B, D, F, 5 mg/kg daily intraperitoneal after LAD ligation, vehicle group mortality 25%) was found to be 100%. Besides, under setting [1], the “intramural vascularity (histology)” value is recorded as “increase in the intramural vascularity” and the “viable myocardial cells (histology)” value is listed as “increase in viable myocardial cells”. Also, the “extent of collateral vascularity (histology)” value (two weeks after LAD occlusion, daily GM284 5 mg/kg i.p., rare in vehicle treated tissue, FIG. 2b) is “numerous collateral vessels”.
